Assay results as given in the NIST ThermoML archive (doi:10.1021/je900414p).

Test: xn = mol fraction of the nth substance listed
Settings: Liquid

CCOS(=O)(=O)[O-].CCn1cc[n+](C)c1 [1-ethyl-3-methylimidazolium ethyl sulfate] + CCO
mass density [kg/m3]
Settings | 100 kPa | 2500 kPa | 5000 kPa | 10000 kPa | 15000 kPa | 20000 kPa | 25000 kPa | 30000 kPa | 35000 kPa
313.15 K, x1 = 0.05056 | 843.63 | 845.7 | 847.81 | 851.86 | 855.73 | 859.44 | 862.99 | 866.42 | 869.72
313.15 K, x1 = 0.103 | 902 | 903.78 | 905.71 | 909.43 | 912.99 | 916.4 | 919.72 | 922.91 | 926.01
313.15 K, x1 = 0.1247 | 923.22 | 925.01 | 926.88 | 930.46 | 933.91 | 937.23 | 940.45 | 943.56 | 946.56
313.15 K, x1 = 0.2126 | 992.44 | 994.08 | 995.74 | 998.97 | 1002.07 | 1005.09 | 1008.03 | 1010.88 | 1013.65
313.15 K, x1 = 0.2919 | 1041.3 | 1042.32 | 1043.83 | 1046.78 | 1049.64 | 1052.42 | 1055.15 | 1057.79 | 1060.38
313.15 K, x1 = 0.3185 | 1054.58 | 1055.91 | 1057.39 | 1060.28 | 1063.09 | 1065.82 | 1068.49 | 1071.08 | 1073.63
313.15 K, x1 = 0.4198 | 1098.28 | 1099.64 | 1101.01 | 1103.69 | 1106.3 | 1108.84 | 1111.34 | 1113.78 | 1116.18
313.15 K, x1 = 0.4847 | 1120.82 | 1122.08 | 1123.39 | 1125.96 | 1128.48 | 1130.94 | 1133.35 | 1135.7 | 1138.01
313.15 K, x1 = 0.5713 | 1146.49 | 1147.66 | 1148.92 | 1151.37 | 1153.79 | 1156.13 | 1158.44 | 1160.72 | 1162.93
313.15 K, x1 = 0.6827 | 1173.47 | 1174.61 | 1175.83 | 1178.16 | 1180.44 | 1182.7 | 1184.92 | 1187.08 | 1189.22
313.15 K, x1 = 0.7919 | 1195.34 | 1196.17 | 1197.31 | 1199.56 | 1201.76 | 1203.92 | 1206.06 | 1208.15 | 1210.22
313.15 K, x1 = 0.9317 | 1217.11 | 1218.16 | 1219.26 | 1221.43 | 1223.56 | 1225.65 | 1227.71 | 1229.75 | 1231.75
323.15 K, x1 = 0.05056 | 835.32 | 837.47 | 839.71 | 843.97 | 848.02 | 851.88 | 855.6 | 859.16 | 862.58
323.15 K, x1 = 0.103 | 893.98 | 895.85 | 897.87 | 901.75 | 905.47 | 909.03 | 912.49 | 915.79 | 919.01
323.15 K, x1 = 0.1247 | 915.32 | 917.14 | 919.07 | 922.82 | 926.4 | 929.85 | 933.19 | 936.42 | 939.53
323.15 K, x1 = 0.2126 | 984.81 | 986.48 | 988.21 | 991.57 | 994.8 | 997.91 | 1000.95 | 1003.91 | 1006.77
323.15 K, x1 = 0.2919 | 1034.05 | 1035.04 | 1036.64 | 1039.7 | 1042.66 | 1045.53 | 1048.35 | 1051.07 | 1053.73
323.15 K, x1 = 0.3185 | 1047.28 | 1048.63 | 1050.16 | 1053.16 | 1056.05 | 1058.87 | 1061.63 | 1064.29 | 1066.91
323.15 K, x1 = 0.4198 | 1091.13 | 1092.5 | 1093.93 | 1096.7 | 1099.39 | 1102.02 | 1104.58 | 1107.1 | 1109.55
323.15 K, x1 = 0.4847 | 1113.75 | 1115 | 1116.36 | 1119.02 | 1121.59 | 1124.12 | 1126.59 | 1129.01 | 1131.39
323.15 K, x1 = 0.5713 | 1139.53 | 1140.71 | 1142.02 | 1144.55 | 1147.01 | 1149.42 | 1151.81 | 1154.14 | 1156.41
323.15 K, x1 = 0.6827 | 1166.57 | 1167.74 | 1168.97 | 1171.37 | 1173.72 | 1176.03 | 1178.31 | 1180.52 | 1182.71
323.15 K, x1 = 0.7919 | 1188.51 | 1189.35 | 1190.5 | 1192.81 | 1195.06 | 1197.29 | 1199.48 | 1201.62 | 1203.73
323.15 K, x1 = 0.9317 | 1210.34 | 1211.42 | 1212.55 | 1214.78 | 1216.96 | 1219.11 | 1221.21 | 1223.29 | 1225.34
